In US20180118707A1, “BETA-NAPHTHOISOFLAVONES, COMPOSITIONS CONTAINING, AND USES OF, SAME” (Thesan Pharmaceuticals, Inc., priority 2015, published 2018):

How the values were obtained:
[1] = tested on: CYP1A1; experiment: Induction of CYP1A1 enzyme in human cultured sebocytes, EROD assay; format: cell-based; conditions: cultured sebocytes, probe 7-ethoxyresorufin (8 μM)
Protocol: (§1) Cells are seeded at between 1×10^4 and 2.5×10^4 cells/well in a 96-well microtitre plate. […] 100 μl of medium is then transferred to a fresh black 96-well plate and 130 μl methanol added. The formation of resorufin is quantified by fluorometry with a fluorescence plate reader. Fluorescence is determined at λex 570 nm and λem 590 nm. The amount of resorufin is calculated from a standard curve generated using 0 to 1 μM resorufin in water at ½ log dilutions. The remaining (i.e. all cells present at the beginning of analysis, since only supernatant is taken to assay EROD) live cells are subsequently utilized for the MU cytotoxicity assay. MU is made up in serum-free medium at 5 mg/mi. then added to the cells giving a final concentration of 10% (0.5 mg/ml MIT final) then incubated for 2 h. The medium is carefully removed, then MIT formazan is solubilized by adding 200 μl of DMSO and subsequently mixed on a plate shaker. The absorbance is measured spectrophotometrically at 550 nm and background absorbance at […] is subtracted. A standard curve generated using MTT formazan (dissolved in DMSO) from O—200 μM (0, 2, 5, 10, 20, 50, 100, 200 μM) is used to calculate the final experimental values which are then expressed as (μmol resorufin/mol MTT formazan) or as fold-induction compared to solvent.

[2] = tested on: CYP1A1 enzyme; experiment: as above; format: cell-based; conditions: 10 uM, 24 h
Protocol: as §1

[3] = tested on: CYP1A1 mRNA; experiment: Induction of CYP1A1 mRNA in HepG2 cells (RT-PCR); format: cell-based, human; conditions: 24 h incubation, 10 uM, normalized to 18S rRNA
Protocol: HepG2 cells (American Type Culture Collection (ATCC), Manassas, Va.) were cultured using Eagle's minimal essential medium (ATCC), supplemented with 10% fetal calf serum (Invitrogen Life Technologies). The cells were cultured continuously until used in experiments (similar to Examples 2 and 3). Celts were plated at a seeding density of 3.8×10^5 cells per well on 6-well plates (Corning Costar, N.Y., U.S.A.). Cells were allowed to attach for 24 h in a 37° C. humidified incubator with a 5% CO2 atmosphere. Media was replaced with that containing test agents or vehicle (0.1% dimethylsuiphoxide) and cells incubated for a further 24 h. Following the 24 h incubation with test agents, media was removed and RNA prepared using the Purelink RNA mini kit (ThermoFischer, Carlsbad, Calif.). Nucleic acid concentration was determined using a Nanodrop™ spectrophotometer (ThermoScientific) by measuring the OD at 260 nm and RNA purity was evaluated using the OD 260/280 nm ratio, 1 μg RNA was reverse transcribed using SuperScript®VILO™ (ThermoFischer) with cDNA synthesis performed using the following parameters: 10min at 25° C., 2 h at 42° C., 5min at 85° C. (deactivation) followed by a completion temperature de C. […] Results were analyzed by calculating the fold change of CYP1A1 mRNA levels normalized to 18S rRNA (ΔΔCt) in compound treated cells or tissues compared to vehicle levels.

[4] = tested on: human sebocyte cells; experiment: MTT cytotoxicity assay in human cultured sebocytes after EROD; format: cell-based
Protocol: The essential methodology for culture and handling of human cultured sebocytes has been described in earlier examples for HEPG2 and NHK cells. Cells are seeded at between 1×10^4 and 2.5×10^4 cells/well in a 96-well microtitre plate. […] The formation of resorufin is quantified by fluorometry with a fluorescence plate reader. Fluorescence is determined at λex 570 nm and λem 590 nm. The amount of resorufin is calculated from a standard curve generated using 0 to 1 μM resorufin in water at ½ log dilutions. The remaining (i.e. all cells present at the beginning of analysis, since only supernatant is taken to assay EROD) live cells are subsequently utilized for the MU cytotoxicity assay. MU is made up in serum-free medium at 5 mg/mi. then added to the cells giving a final concentration of 10% (0.5 mg/ml MIT final) then incubated for 2 h. The medium is carefully removed, then MIT formazan is solubilized by adding 200 μl of DMSO and subsequently mixed on a plate shaker. The absorbance is measured spectrophotometrically at 550 nm and background absorbance at […] is subtracted. A standard curve generated using MTT formazan (dissolved in DMSO) from O—200 μM (0, 2, 5, 10, 20, 50, 100, 200 μM) is used to calculate the final experimental values which are then expressed as (μmol resorufin/mol MTT formazan) or as fold-induction compared to solvent.

[5] = tested on: HepG2 cells; experiment: MTT cytotoxicity assay in HepG2 cells after EROD; format: cell-based, human
Protocol: The formation of resorufin is quantified by fluorometry with a fluorescence plate reader. Fluorescence is determined at λex 570 nm and λem 590 nm. The amount of resorufin is calculated from a standard curve generated using 0 to 1 μM resorufin in water at ½ log dilutions. The remaining (i.e. all cells present at the beginning of analysis, since only supernatant is taken to assay EROD) live cells are subsequently utilized for the MIT cytotoxicity assay. MTT is made up in serum-free medium at 5 mg/ml. then added to the cells giving a final concentration of 10% (0.5 mg/ml MTT final) then incubated for 2 h. The medium is carefully removed, then MTT formazan is solubilized by adding 200 μl of DMSO and subsequently mixed on a plate shaker. The absorbance is measured spectra photometrically at 550 nm and background absorbance at 690 nm is subtracted.

O=c1cc(-c2ccccc2)oc2ccc3ccccc3c12 [D, 3-Phenyl-1H-benzo[f]chromen-1-one, reference compound]
EC50 at 24 h [1]: 1000 nM | % change vs. TCDD EROD (Sebs) at 10 uM [2]: 17% | CYP1A1 mRNA fold change from vehicle [3]: 596 fold | Toxicity threshold [4]: 30 µM | Toxicity threshold [5]: >50 µM
